According to a melting point compilation (Tetko et al.):

| SMILES | melting point [°C] |
| --- | --- |
| CCN(CC)C(=O)CC(C)=O | -73 |
| O=Cc1ccc(I)o1 | 127 |
| CCCCCCCCCCCCCCCCCC(N)=O | 109 |
| N#Cc1ccnc(Br)c1 | 72 |
| O=Cc1cc(Cl)cc(Cl)c1Cl | 72 to 76 |
| OC1OC(C2COC3(CCCCC3)O2)C2OC3(CCCCC3)OC12 (stereo not given) | 120 to 124 |
| COc1ccc([N+](=O)[O-])cn1 | 108 |
| CC(C)C1=CC2=CCC3C(C)(C(=O)O)CCCC3(C)C2CC1 (stereo not given) | 174 |
| Fc1cc(Br)c(Br)cc1F | 33 |
| NC(Cc1cc(F)cc(F)c1)C(=O)O (racemic) | 243 to 245 |
| Sc1cc(Cl)cc(Cl)c1 | 59 to 61 |
| Cc1c(I)ccnc1Cl | 107 |
| Nc1ccc(Br)cn1 | 138 |
| c1ccc2cc3cc4cc5ccccc5cc4cc3cc2c1 | 300 |
| COC(=O)c1sccc1N | 66 to 67 |
| CC12CCC3C4CCC(=O)C(O)=C4CCC3C1CCC2O (stereo not given) | 189 |
| CCCCCCCCCCCCCCCCCCCCCCCCCC(=O)O | 88.5 |
| CCCCCCC(=O)OCCCC | -67.5 |
| CCc1cccc(C)c1N | -25 |

| SMILES | melting point [°C] |
| --- | --- |
| O=S(=O)(Cl)c1ccc(N2CCOCC2)nc1 | 118 |
| NCCCCCN | 9 |
| COc1cc(O)c(C(C)=O)c(O)c1 | 144 to 149 |
| CCc1c(CC)c(CC)c(CC)c(CC)c1CC | 129 |
| CC(C)CCCC(C)C1CCC2C3CC(=O)C4(O)CC(=O)CCC4(C)C3CCC12C (stereo not given) | 222 |
| OCC1OC(n2cnc3c(S)ncnc32)C(O)C1O (stereo not given) | 218 to 221 |
| CC12CC(O)C3C(CCC4CC(O)CCC43C)C1CCC2=O (stereo not given) | 235 |
| CN1CCN(c2ccccc2C=O)CC1 | 44 to 48 |
| C1CCN(CCN2CCCCC2)CC1 | -0.5 |
| COc1c(Cl)cc([N+](=O)[O-])c(OC)c1C(=O)O | 131 |
| S=P(N1CC1)(N1CC1)N1CC1 | 54 to 57 |
| CCOC(=O)c1sc(Cl)nc1C | 46 to 47 |
| CCOC(=O)C(C)(C)C(=O)OCC | -30.4 |
| CCOC(CN)OCC | -78 |
| Sc1nnc(SCCSc2nnc(S)s2)s1 | 202 to 204 |
| Cc1ccc(N=CN(C)C=Nc2ccc(C)cc2C)c(C)c1 | 86 |
| CCOC(=O)C1CCN(c2cc(C#N)ccn2)CC1 | 51 to 53 |
| CC(C)CC1CCCCC1 | -95 |
| O=C1/C(=C/c2ccc([N+](=O)[O-])cc2)SC(=S)N1CN(CCCl)CCCl | 284 |

| SMILES | melting point [°C] |
| --- | --- |
| O=C(O)C(F)(F)C(F)(F)C(F)(F)C(F)(F)C(=O)O | 134 |
| CCC(N)C(O)c1ccccc1 (stereo not given) | 79.5 |
| NCCOCCO | -11 |
| CCC(Cl)C(C)Cl (stereo not given) | -77.3 |
| O=C(O)c1cc2nccnc2s1 | 220 |
| CSc1nnc(S)s1 | 136 |
| CC(C)=NNC(N)=O | 182 |
| COc1ccc(C(=O)O)cc1Br | 220 |
| CNC[C@H](O)[C@@H](O)[C@H](O)[C@H](O)CO | 128 |
| Nc1cc(Br)cc2cc[nH]c12 | 105 |
| Cc1nc[nH]c1C=O | 165 to 166 |
| Oc1ccc(Cl)c(F)c1 | 52 |
| CCCCC(=O)Cl | -110 |
| NC(=O)c1ccc(Cl)c(Cl)c1 | 141 |
| COP(=S)(OC)Oc1ccc([N+](=O)[O-])cc1Cl | 52.5 |
| N#Cc1c(F)c(F)cc(F)c1F | 34 |
| O=S(=O)(Cl)c1ccc(S(=O)(=O)N2CCCC2)cc1 | 133 to 134 |
| O=C(O)CC1NC(=O)NC1=O (stereo not given) | 213 to 216 |

The remaining lines, values ahead:

| melting point [°C] | SMILES |
| --- | --- |
| 105 to 108 | NS(=O)(=O)c1ccc(Sc2cccs2)s1 |
| 91 | CCOC(=O)C1C(c2ccccc2O)C(C(=O)OCC)C(O)(C(F)(F)F)NC1(O)C(F)(F)F (stereo not given) |
| 144 to 145 | O=S(=O)(NC(=S)Nc1ccccc1)c1ccccc1 |
| 123 to 124 | N#Cc1ccc(-c2ccc(C(F)(F)F)cn2)cc1 |
| 29 | C=Cc1ccccc1OC |
| 214 | CN1CCN(C(=O)CC(c2ccc(Cl)cc2)(c2ccc(Cl)cc2)c2ccc(Cl)cc2)CC1 |
| 270 to 275 | N[C@@H](Cc1ccccc1)C(=O)O |
| 293 to 294 | O=C(c1ccccc1)N1CCc2cc3c(cc21)CCN3C(=O)c1ccccc1 |
| 96 to 100 | O=Cc1ccc2cccc(O)c2n1 |
| 160 | O=C(c1noc(-c2ccc([N+](=O)[O-])cc2)c1S(=O)(=O)c1ccccc1)c1cccc2ccccc12 |
| 60 to 61 | O=[N+]([O-])c1ccc(SCCO)cc1 |
| 217 | COc1ccc(-c2oc3c(C)c(OC)cc(OC)c3c(=O)c2C)cc1OC |
| 206 | O=C1NC(=O)c2cc([N+](=O)[O-])ccc21 |
| 95 | Cc1cccc(NC(=O)c2cnc(C(C)(C)C)cn2)c1 |
| 221 to 222 | Cc1cc(C)c(C2(C)CC(C(=NO)c3cc4cc(Br)ccc4o3)C2)c(C)c1 (stereo not given) |
| 102 to 104 | Cc1noc(-c2ccc(CO)cc2)n1 |
| 114 | Cc1cc(C)c2c(-c3ccccc3)nn(-c3ccccc3)c2n1 |
| 198 to 201 | O=C(C=NO)Nc1cc(Cl)ccc1Cl |
| 159 | Cc1cccc(O)n1 |
| 118 to 119 | COc1ccccc1NC(=O)c1cnc(C(C)(C)C)c(Cl)n1 |
| 303 to 305 | COc1ccccc1/N=N/c1c(N)nn2c(-c3ccccc3)cc(=O)[nH]c12 |
| 299 | Cc1cc(=O)oc2cc(O)cc(O)c12 |
| 162 | Cc1ccc2c(c1C)CCC1C2CC=C2CC(C(=O)O)CCC21C (stereo not given) |
| 162 | O=C(OCC(COC(=O)c1cccnc1)(COC(=O)c1cccnc1)COC(=O)c1cccnc1)c1cccnc1 |
| > 200 | COc1ccc(C=CC(=O)c2cccc(C(=O)C=Cc3ccc(OC)c(O)c3)c2)cc1O |

| melting point [°C] | SMILES |
| --- | --- |
| 161 to 164 | Cc1cc(O)c(C)c(O)c1 |
| 51 | CC(C#N)c1ccccc1[N+](=O)[O-] (stereo not given) |
| 198 | CCOC(=O)CNC(=O)c1cn(CC)c2nc(C)ccc2c1=O |
| 70 | CCOCCc1ccc(OCCNc2ncnc(CC)c2Cl)c(C)c1C |
| 34 | c1ccc(Cc2cccnc2)cc1 |
| 89 | O=C(O)Cc1ccc(Cl)cc1C(F)(F)F |
| 64 | Cc1cc(Br)ccc1C#N |
| 109 | NS(=O)(=O)c1ccc(F)c(Cl)c1 |
| 63 | O=[N+]([O-])c1ccc(CCO)cc1 |
| 228 | COS(=O)(=O)c1cc([N+](=O)[O-])ccc1C#Cc1ccc([N+](=O)[O-])cc1S(=O)(=O)OC |
| 137 to 138 | CCOC(=O)C(C#N)=Cc1ccc(Cl)cc1 |
| 239 | NS(=O)(=O)c1cc2c(cc1Cl)NC(Cc1ccc(F)cc1)NS2(=O)=O (stereo not given) |
| 35.5 | CCCCOC(=O)c1ccc([N+](=O)[O-])cc1 |
| 102 | COc1ccc2cc(Nc3ccc4c(c3)OCCO4)ccc2c1 |
| 38 | O=S(=O)(Cl)c1cc(Cl)ccc1Cl |
| 96 | COC1=C(OC)C(C(O)CBr)OC1=O (stereo not given) |
| 285 | N=C(N)NCCCC(NC(=O)c1ccccc1)C(=O)O (stereo not given) |
| 92 | O=S(=O)(Cl)Cc1ccccc1 |
| 87.5 | CCN(CC)c1ccc(N=O)cc1 |
| 38 | c1ccc2nnccc2c1 |
| 144 to 145 | O=C1OC(c2ccccc2)=NC1=Cc1ccc(-c2cccc([N+](=O)[O-])c2)o1 |
| 231 to 234 | O=Cc1ccc(-c2cncc(C(=O)O)c2)cc1 |
| 103 to 105 | Cc1cc(O)c(C(C)C)cc1SC#N |
| 113 | COC(=O)c1ccc(N)c(Cl)c1 |
| 222 | O=[N+]([O-])c1ccc(NN=Cc2cccc3c(Br)cccc23)c([N+](=O)[O-])c1 |

| melting point [°C] | SMILES |
| --- | --- |
| 175 to 177 | Cc1nn(-c2ccccc2)nc1C(N)=O |
| 159 | CC(=O)Oc1ccccc1C(=O)Oc1ccccc1C(=O)O |
| 274 to 276 | CC(=O)Nc1ccc(-c2cc(C(=O)O)c3ccccc3n2)cc1 |
| 52 | COc1ccc(CC#N)cc1Br |
| 36 to 39 | CCOC(=O)c1sc(-c2ccccc2)nc1C |
| 156 to 157 | O=C1CCc2cccc(O)c2C1 |
| 100 | CC(C)(Oc1ccc(Cl)cc1)C(=O)NC(=O)NCN1CCOCC1 |
| 126 | O=C1Cc2cc3c(cc21)OCO3 |
| 82 | O=[N+]([O-])c1ccccc1Sc1ccccc1 |
| 98 to 99 | O=C(C=Cc1ccc(-c2ccccc2)o1)c1ccccc1 |
| 124 | COc1ccccc1CC(=O)O |
| 88 to 89 | Cn1nc(-c2ccccc2)cc1C(=O)Cl |
| 165 | Nc1c(C(=O)Oc2ccccc2)sc2sc(C(=O)Oc3ccccc3)c(N)c12 |
| 162 to 164 | Fc1cccc(-n2cc[nH]c2=S)c1 |
| 164 | Cc1ccc(C)c(CNC2=CC(=O)c3ccccc3C2=O)c1 |
| 194 | CS(=O)(=O)Nc1ccc(C#N)cc1 |
| 236 | O=C(COc1ccc(Cl)cc1)Nc1nc2ccc(Br)cc2s1 |
| 317 | Oc1c2cccc1Cc1cccc(c1O)Cc1cccc(c1O)Cc1cccc(c1O)C2 |
| 70 | CC1(C)OC(=O)c2ccccc21 |
| 48 to 50 | c1ccc2c(c1)OCCOCCOCCO2 |
| 219 | NS(=O)(=O)c1ccc2ccccc2c1 |
| 104 | O=C(O)Cc1ccc(F)cc1Cl |
| 211 to 213 | COC(=O)C1=C(N)Oc2cc(C)n(CCc3ccccc3)c(=O)c2C1c1ccc(OC)cc1 (stereo not given) |
| 160 to 166 | CCOC(=O)C1=C(C)OC(N)=C(C#N)C1c1ccc2c(c1)CCO2 (stereo not given) |
